{"source": "patent US20130053435A1", "about": "“Methods of Treating Alcohol Intoxication, Alcohol Use Disorders and Alcohol Abuse Which Comprises the Administration of Dihydromyricetin” (priority 2011, published 2013)", "key": {"[1]": {"tested_on": "voluntary EtOH consumption in rats", "experiment": "Intermittent access two-bottle choice voluntary EtOH intake", "type": "in vivo, rat", "details": "for EtOH consumption: E+D/water sub-group switched after 4 weeks", "protocol": "All fluids were presented in 100 ml graduated glass cylinders with stainless-steel drinking spouts inserted 15 min after the lights went off in the reversed light/dark cycle room. Bottles were weighed 30 min and 24 hrs after the fluids were presented. Each rat was weighed daily to monitor health and calculate the grams of ethanol intake per kilogram of body weight.\nSweetener (2 pk/L) was added to every bottle for the first week. Sweetener (1 pk/L) was added to every bottle for the second week. […] Rats had unlimited access to two bottles of water between the EtOH-access periods. The placement of the EtOH bottle was alternated each EtOH drinking session to control for side preferences. Rats were maintained on 20% EtOH intermittent access two-bottle choice paradigm for 7 weeks (21 EtOH-access sessions). […] The rest of the EtOH group continued EtOH-access sessions. EtOH consumption was expressed as grams of EtOH consumed per kilogram of body weight. Rats access to two bottles of water were taken as the control-group. There was no significant difference in body weight between the control and the EtOH-drinking rats at the end of the experiments."}, "[2]": {"tested_on": "EtOH-induced LORR in rats", "protocol": "See Kakihana R, et al. (1966) Science 154(756):1574-1575). Briefly, after drug injection, rats were placed in the supine position in a V-shaped support. LORR onset time was taken from the endpoint of drug injection (i.p.). LORR duration ended when the animal was able to flip over three times in 30 s. LORR assays were blindly performed. LORR durations were reported as mean (min)±SEM.\nFurther LORR assays were conducted as follows.\nAdditional pre-treatment and post-treatment experiments were also conducted.\nSee Hunkeler, W., et al. (1981) Nature 290:514-516."}, "[3]": {"tested_on": "T1, GABAARs", "T1 construct": "other: in the presence of 60 mM EtOH, rat hippocampal; shift of the GABA concentration-response curve", "experiment": "Whole-cell patch-clamp, cultured hippocampal neurons, acute drug application", "type": "cell-based, rat", "details": "DHM 0.3 and 1 μM co-applied with GABA (b110 prints 1 M)", "protocol": "(§1) Hippocampal neurons from embryonic day 18 rats were prepared by papain dissociation (Worthington Biochemical, Lakewood, N.J.) and cultured in neurobasal medium and B27 supplement (Invitrogen). Cultures were kept at 37° C. in a 5% CO2 humidified incubator as described previously. See Shen, Y., et al. (2011) Mol Pharmacol 79:432-442.\n(§2) Hippocampal neurons from embryonic day 18 SD rats were prepared by papain dissociation (Worthington Biochemical, Lakewood, N.J.) and cultured in neurobasal medium (Invitrogen) and B27 supplement as previously reported. See Stowell J N and Craig A M (1999) Neuron 22(3):525-536. Briefly, embryos were removed from maternal rats anesthetized with isoflurane and euthanized by decapitation. Hippocampus were dissected and placed in Ca^2+- and Mg^2+-free HEPES-buffered Hank's buffered salt solution (pH 7.45). Tissues were dissociated by papain digestion followed by trituration through a Pasteur pipette and papain inhibitor treatment. Cells were pelleted and resuspended in neurobasal medium containing 2% B27 serum-free supplement, 100 U/ml penicillin, 100 μg/ml streptomycin, 0.5 mM glutamine (all from Invitrogen), and 10 μM glutamate (Sigma).\n(§3) Dissociated neurons were then plated at a density of 0.3×10^5 cells/cm^2 onto 12 mm round coverslips in 24-well plates (for patch-clamp recording) and/or at a density of 0.5×10^5 cells/cm^2 in 6-well plates (for Western blot and biotinylation assays) coated with poly-D-lysine (Sigma, 50 μg/ml). Cultures were kept at 37° C. in a 5% CO2 humidified incubator. Thereafter, one third to half of the medium was replaced twice a week with neurobasal culture medium containing 2% B27 supplement, and 0.5 mM glutamine.\n(§4) Control neurons were treated with corresponding vehicle as same procedure as EtOH-treated neurons. The concentration of 60 mM EtOH was selected in view of prior experiments. See Liang J et al (2007). Specifically, the concentration of 60 mM EtOH used to treat cultured neurons was chosen to match blood levels measured in adult rats after intoxication with gavage of 5 g/kg, which produced about 60 mM blood peak plasma [EtOH] lasting for about 2 to 3 hr and induced significant plasticity in GABAARs and tolerance.\n(§5) Then, immediately before electrophysiological recording, cells grown on coverslips were transferred to a perfusion chamber (Warner Instruments) and visualized with an inverted microscope (TE200, Nikon). Whole-cell patch-clamp recordings were obtained from cultured neurons under voltage-clamp mode at room temperature (22-25° C.), at a holding potential of −70 mV. Cells were perfused with an extracellular solution (137 mM NaCl, 5 mM KCl, 2 mM CaCl2, 1 mM MgCl2, 20 mM glucose and 10 mM HEPES (310-320 Osm, pH adjusted to 7.40 with NaOH)). Glass pipettes were filled with the same internal solution as that in slice recordings, with an input resistance of 4-7 MΩ. GABAAR-mediated mIPSCs were recorded using the same pharmacological method as mentioned above. […] Electrical signals were amplified using a Multiclamp 200 B amplifier (Molecular Devices, USA). After establishing the whole-cell configuration, at least 10 min were allowed to elapse before the application of drug to allow the membrane patch to stabilize and exchange of ions between the recording electrode and the cytosol to occur. Data were acquired with pClamp software (Version 10.0, Molecular Devices, USA), digitized at 20 kHz (Digidata 1440A, Molecular Devices), and analyzed using the Clampfit software (Version 10.0, Molecular Devices) and the Mini Analysis Program (versions 6.0.7, Synaptosoft, Decatur, Ga.) using methods known in the art. See Hamann M, et al. (2002) Neuron 33(4):625-633; Stell B M and Mody I (2002) J Neurosci 22(10): RC223; and Liang (2007)."}, "[4]": {"tested_on": "T2, GABAARs", "T2 construct": "DHM-enhanced Itonic; EC50 on GABAAR-mediated Itonic; other: control (vehicle) cultured neurons, DIV14; other: cultured neurons with EtOH exposure/withdrawal (60 mM, 30 min, 24 hr); EtOH-potentiated Itonic; GABAAR-mediated Ito", "experiment": "Whole-cell patch-clamp, cultured hippocampal neurons, acute drug application", "type": "cell-based, rat", "protocol": "as §1, §2, §3, §4, §5"}, "[5]": {"tested_on": "T3, GABAARs", "T3 construct": "DHM-enhanced mIPSCs; other: control (vehicle) cultured neurons, DIV14; other: cultured neurons with EtOH exposure/withdrawal (60 mM, 30 min, 24 hr); EtOH-potentiated mIPSCs; effect on post-synaptic currents (mIPSCs); other: comparative experiments, rat hippocampal slices", "experiment": "Whole-cell patch-clamp, cultured hippocampal neurons, acute drug application", "type": "cell-based, rat", "protocol": "as §1, §2, §3, §4, §5"}, "[6]": {"details": "DHM 1 mg/kg i.p. 30 min after EtOH i.p."}, "[7]": {"details": "DHM 1 mg/kg i.p. 30 min prior to EtOH 3 g/kg i.p."}}, "note": "“And” between values parts separate entries of the source, which are not always exact repeats. Equal entries are not always repeated. Where two headings read alike, the source gives them in different places."}
{"smiles": "O=C1c2c(O)cc(O)cc2O[C@H](c2cc(O)c(O)c(O)c2)[C@H]1O", "note": "[DHM, (2R,3R)-3,5,7-trihydroxy-2-(3,4,5-trihydroxyphenyl)-2,3-dihydrochromen-4-one]", "values": [{"measurement": "EtOH-intake", "setting": "[1]; E+D/water group, DHM 0.05 mg/ml in 20% EtOH from start", "value": "2.6 ± 0.4", "unit": "g/kg/day"}, {"measurement": "EtOH consumption", "setting": "[1]; end of 6th week", "value": "1.2 ± 0.2", "unit": "g/kg/day"}, {"measurement": "EtOH consumption", "setting": "[1]; end of the 5th week", "value": "1.8 ± 1.0", "unit": "g/kg/day"}, {"measurement": "LORR duration remaining from DHM injection", "setting": "[2]; [6]", "value": "21 ± 2 min and 19 ± 1.0 min"}, {"measurement": "remaining LORR, % of control (E+saline)", "setting": "[2]; [6]", "value": "41.2±3.8% and 42%"}, {"measurement": "LORR duration (total)", "setting": "[2]; DHM 1 mg/kg i.p. 30 min after EtOH i.p. (b63 prints 3 mg/kg)", "value": "49 ± 2", "unit": "min"}, {"measurement": "LORR duration", "setting": "[2]; [7]", "value": "8 ± 4 min and 8.2 ± 4.1 min"}, {"measurement": "LORR duration, % of control", "setting": "[2]; [7]", "value": "10.6±5.9 % of control"}, {"measurement": "LORR duration, % of control", "setting": "[2]; co-administration DHM 1 mg/kg i.p. with EtOH i.p.", "value": "1.2±0.6 % of control"}, {"measurement": "LORR duration", "setting": "[2]; co-injection DHM 3 mg/kg and EtOH 3 g/kg i.p.", "value": "2.7 ± 1.7", "unit": "min"}, {"measurement": "EtOH-induced LORR duration in female rats", "setting": "[2]; female rats, combined treatment DHM 1 mg/kg i.p. with EtOH 3 g/kg i.p.", "value": "reduction"}, {"measurement": "shift of the GABA concentration-response curve", "setting": "[3]", "value": "left shift"}, {"measurement": "Itonic", "setting": "[4]; 0.3 μM DHM, cultured hippocampal neurons", "value": "21.0±2.3", "unit": "pA"}, {"measurement": "Itonic", "setting": "[4]; 1 μM DHM, cultured hippocampal neurons DIV13-14", "value": "194.9±13.6 % of control"}, {"measurement": "EC50", "setting": "[4]; control (vehicle) cultured neurons, DIV14, read-out: EC50 on GABAAR-mediated Itonic", "value": "~200", "unit": "nM"}, {"measurement": "EC50", "setting": "[4]; cultured neurons with EtOH exposure/withdrawal (60 mM, 30 min, 24 hr), read-out: EC50 on Itonic", "value": "~200 nM and ~300 nM"}, {"measurement": "mIPSCs (area)", "setting": "[5]; 1 μM DHM, cultured hippocampal neurons", "value": "181.8±9.2 % of control and 128.2±8.3 % of control"}, {"measurement": "EC50", "setting": "[5]; control (vehicle) cultured neurons, DIV14, read-out: EC50 on mIPSCs", "value": "~200 nM and ~300 nM"}]}
